Results reported in patent US5286648A, “A84575 antibiotics” (Eli Lilly and Company, priority 1991, dated 1994).
Values after ≈ are worked out from the molar mass of the structure shown.

How the values were obtained:
Hemophilus influenza = assay: In vitro activity vs. Hemophilus influenza strains, broth dilution, Shadler broth + 5% fildes extract (Table 12); format: cell-based
Source text: ^1 Using brothdilution method and testing the strains with Shadler
broth +5% fildes extract

Peptococcus variabilis = assay: Susceptibility of anaerobic cocci isolates, agar dilution (Table 16); format: cell-based; conditions: 24 h
[1] = tested on: Peptostreptococcus intermedius; assay: Susceptibility of anaerobic bacterial isolates, agar dilution (Table 13); format: cell-based; conditions: 24 h
Propionibacterium acnes = assay: Susceptibility of Propionibacterium acnes isolates, agar dilution (Table 15); format: cell-based; conditions: Cutibacterium acnes, 24 h
Streptococcus aureus = assay: In vivo activity, administered subcutaneously to mice (Table 17); conditions: sc
[2] = tested on: Fusobacterium necrophorum; assay: Susceptibility of anaerobic bacterial isolates, agar dilution (Table 13); format: cell-based; conditions: 24 h
[3] = tested on: Peptostreptococcus anaerobius; assay: Susceptibility of anaerobic cocci isolates, agar dilution (Table 16); format: cell-based; conditions: 24 h
S. mutans = assay: In vitro activity vs. miscellaneous Streptococcus strains, agar dilution, Mueller-Hinton agar (Table 9)
Fusobacterium symbiosum = assay: Susceptibility of anaerobic bacterial isolates, agar dilution (Table 13); format: cell-based; conditions: 24 h
Clostridium perfringens = assay: microbe, parasite or virus in culture; format: cell-based; conditions: 24 h
S. sanguis = assay: In vitro activity vs. miscellaneous Streptococcus strains, agar dilution, Mueller-Hinton agar (Table 9)
Streptococcus pyogenes = assay: In vitro activity vs. Streptococcus pyogenes strains, agar dilution, Mueller-Hinton agar (Table 11)
Bacteroides vulgatis = assay: Susceptibility of anaerobic bacterial isolates, agar dilution (Table 13); format: cell-based; conditions: 24 h
Bacteroides corrodens = assay: as above; format: cell-based; conditions: Eikenella corrodens, 24 h
Staphylococcus aureus = assay: In vitro activity vs. Staphylococcus aureus strains, agar dilution, Mueller-Hinton agar (Table 6); format: cell-based
[4] = Plasma levels in mice (Table 18); format: in vivo, mice (ICR Barrier); parameters: unit not given here; conditions: subcutaneous, 20 mg/kg, n = 5
[5] = tested on: Peptococcum asaccharolyticus; assay: Susceptibility of anaerobic bacterial isolates, agar dilution (Table 13); format: cell-based; conditions: 24 h
[6] = tested on: Peptostreptococcus intermedius; assay: Susceptibility of anaerobic cocci isolates, agar dilution (Table 16); format: cell-based; conditions: 24 h
Bacteroides fragilis = assay: Susceptibility of anaerobic bacterial isolates, agar dilution (Table 13); format: cell-based
Streptococcus pneumoniae = assay: In vitro activity vs. Streptococcus pneumoniae strains, agar dilution, Mueller-Hinton agar (Table 10)

Compound `CN[C@H](CC(C)C)C(=O)N[C@H]1C(=O)N[C@@H](CC(N)=O)C(=O)N[C@H]2C(=O)N[C@H]3C(=O)N[C@H](C(=O)N[C@H](C(=O)O)c4cc(O)cc(O)c4-c4cc3ccc4O)[C@H](O)c3ccc(c(Cl)c3)Oc3cc2cc(c3O[C@@H]2O[C@H](CO)[C@@H](O)[C@H](O)[C@H]2O[C@H]2C[C@](C)(N)[C@H](O)[C@H](C)O2)Oc2ccc(cc2Cl)[C@H]1O` [Vancomycin] has an MIC (Hemophilus influenza; strain Astes) of 64 µg/mL, an MIC (Hemophilus influenza; strain Bond) of 64 µg/mL and an MIC (Hemophilus influenza; strain Bruno) of 128 µg/mL. For the same compound, the MIC (Hemophilus influenza; strain Harper) was 64 µg/mL, the MIC (Hemophilus influenza; strain Johnson) was 64 µg/mL and the MIC (Hemophilus influenza; strain Lassig) was 32 µg/mL. For the same compound, the MIC (Hemophilus influenza; strain Lawrence) was 64 µg/mL, the MIC (Hemophilus influenza; strain Newton) was 64 µg/mL and the MIC (Peptococcus variabilis) was 0.125 µg/mL (≈ 0.0863 µM). It also gave an MIC [1] of 1 µg/mL (≈ 0.69 µM), an MIC (Propionibacterium acnes; strain #44, A84575: 3 different lots) of 0.5 µg/mL (≈ 0.345 µM) and an MIC (Propionibacterium acnes; strain #103, A84575: 3 different lots) of 0.25 µg/mL (≈ 0.173 µM). For the same compound, the MIC (Propionibacterium acnes; strain #104, A84575: 3 different lots) was 0.5 µg/mL (≈ 0.345 µM), the MIC (Propionibacterium acnes; strain #105, A84575: 3 different lots) was 0.25 µg/mL (≈ 0.173 µM) and the MIC (Propionibacterium acnes; strain #106, A84575: 3 different lots) was 0.5 µg/mL (≈ 0.345 µM). For the same compound, the MIC (Propionibacterium acnes; strain #107, A84575: 3 different lots) was 0.25 µg/mL (≈ 0.173 µM), the MIC (Propionibacterium acnes; strain #5170, A84575: 3 different lots) was 0.25 µg/mL (≈ 0.173 µM) and the MIC (Propionibacterium acnes; strain #5176, A84575: 3 different lots) was 2 µg/mL (≈ 1.38 µM). It also gave an MIC (Propionibacterium acnes; strain #5187, A84575: 3 different lots) of 0.5 µg/mL (≈ 0.345 µM), an MIC (Propionibacterium acnes; strain #5191, A84575: 3 different lots) of 0.5 µg/mL (≈ 0.345 µM) and an MIC (Propionibacterium acnes; strain #5197, A84575: 3 different lots) of 0.5 µg/mL (≈ 0.345 µM). The MIC (Propionibacterium acnes; strain #5226, A84575: 3 different lots) was 0.5 µg/mL (≈ 0.345 µM), the MIC (Propionibacterium acnes; strain #5227, A84575: 3 different lots) was 0.25 µg/mL (≈ 0.173 µM) and the MIC (Propionibacterium acnes; strain #5228, A84575: 3 different lots) was 0.25 µg/mL (≈ 0.173 µM). The MIC (Propionibacterium acnes; strain #5229, A84575: 3 different lots) was 0.25 µg/mL (≈ 0.173 µM), the MIC (Propionibacterium acnes; strain #5246, A84575: 3 different lots) was 0.25 µg/mL (≈ 0.173 µM) and the MIC (Propionibacterium acnes; strain #5260, A84575: 3 different lots) was 0.5 µg/mL (≈ 0.345 µM). For the same compound, the MIC (Propionibacterium acnes; strain #5292, A84575: 3 different lots) was 0.5 µg/mL (≈ 0.345 µM), the MIC (Propionibacterium acnes; strain #8586A, A84575: 3 different lots) was 0.5 µg/mL (≈ 0.345 µM) and the ED50 (Streptococcus aureus) was 0.83 mg/kg. The MIC [2] was 1 µg/mL (≈ 0.69 µM), the MIC ([3]; strain 8, A84575: 3 different lots) was 1 µg/mL (≈ 0.69 µM) and the MIC ([3]; strain 52, A84575: 3 different lots) was 1 µg/mL (≈ 0.69 µM). The MIC ([3]; strain 59, A84575: 3 different lots) was 0.25 µg/mL (≈ 0.173 µM), the MIC ([3]; strain 1428, A84575: 3 different lots) was 0.03 µg/mL (≈ 0.0207 µM) and the MIC ([3]; strain 1451, A84575: 3 different lots) was 2 µg/mL (≈ 1.38 µM). For the same compound, the MIC ([3]; strain 1477, A84575: 3 different lots) was 2 µg/mL (≈ 1.38 µM), the MIC (S. mutans; strain SM-1122) was 1 µg/mL (≈ 0.69 µM) and the MIC (S. mutans; strain SM-1134) was 2 µg/mL (≈ 1.38 µM). The MIC (Fusobacterium symbiosum) was 1 µg/mL (≈ 0.69 µM), the MIC (Clostridium perfringens) was 1 µg/mL (≈ 0.69 µM) and the MIC (S. sanguis; strain I-SSI-547) was 0.5 µg/mL (≈ 0.345 µM). For the same compound, the MIC (S. sanguis; strain I-SSI-910) was 0.5 µg/mL (≈ 0.345 µM), the MIC (S. sanguis; strain II-SSII-895) was 0.5 µg/mL (≈ 0.345 µM) and the MIC (S. sanguis; strain II-SSII-911) was 1 µg/mL (≈ 0.69 µM). It also gave an MIC (Streptococcus pyogenes; ATCC12344, strain ATCC 12344) of 1 µg/mL (≈ 0.69 µM), an MIC (Streptococcus pyogenes; strain 9931) of 0.5 µg/mL (≈ 0.345 µM) and an MIC (Streptococcus pyogenes; strain 10389) of 0.5 µg/mL (≈ 0.345 µM). It also gave an MIC (Streptococcus pyogenes; strain 12385) of 2 µg/mL (≈ 1.38 µM), an MIC (Streptococcus pyogenes; strain 12961) of 1 µg/mL (≈ 0.69 µM) and an MIC (Streptococcus pyogenes; strain C203) of 1 µg/mL (≈ 0.69 µM). The MIC (Streptococcus pyogenes; strain DS663-72) was 0.5 µg/mL (≈ 0.345 µM), the MIC (Streptococcus pyogenes; strain HB93) was 1 µg/mL (≈ 0.69 µM) and the MIC (Streptococcus pyogenes; strain K-1) was 0.5 µg/mL (≈ 0.345 µM). It also gave an MIC (Streptococcus pyogenes; strain K-2) of 0.5 µg/mL (≈ 0.345 µM), an MIC (Streptococcus pyogenes; strain K-3) of 0.5 µg/mL (≈ 0.345 µM) and an MIC (Streptococcus pyogenes; strain K-4) of 1 µg/mL (≈ 0.69 µM). For the same compound, the MIC (Streptococcus pyogenes; strain K-5) was 1 µg/mL (≈ 0.69 µM), the MIC (Streptococcus pyogenes; strain K-6) was 0.5 µg/mL (≈ 0.345 µM) and the MIC (Bacteroides vulgatis) was 8 µg/mL (≈ 5.52 µM). For the same compound, the MIC (Bacteroides corrodens) was 16 µg/mL (≈ 11 µM), the MIC (Staphylococcus aureus; strain 3055) was 1 µg/mL (≈ 0.69 µM) and the MIC (Staphylococcus aureus; strain 3109) was 1 µg/mL (≈ 0.69 µM). It also gave an MIC (Staphylococcus aureus; strain 3110) of 0.5 µg/mL (≈ 0.345 µM), an MIC (Staphylococcus aureus; strain 3123) of 1 µg/mL (≈ 0.69 µM) and an MIC (Staphylococcus aureus; strain 3128) of 1 µg/mL (≈ 0.69 µM). The MIC (Staphylococcus aureus; strain 3131, methicillin-resistant) was 0.5 µg/mL (≈ 0.345 µM), the MIC (Staphylococcus aureus; strain 3136) was 1 µg/mL (≈ 0.69 µM) and the MIC (Staphylococcus aureus; strain 3484A, methicillin-resistant) was 1 µg/mL (≈ 0.69 µM). It also gave an MIC (Staphylococcus aureus; strain 25923) of 2 µg/mL (≈ 1.38 µM), an MIC (Staphylococcus aureus; strain #43, methicillin-resistant) of 0.5 µg/mL (≈ 0.345 µM) and an MIC (Staphylococcus aureus; strain BGB #10, methicillin-resistant) of 1 µg/mL (≈ 0.69 µM). The MIC (Staphylococcus aureus; strain CVT#6, methicillin-resistant) was 0.5 µg/mL (≈ 0.345 µM), the MIC (Staphylococcus aureus; strain DUTT, methicillin-resistant) was 0.5 µg/mL (≈ 0.345 µM) and the MIC (Staphylococcus aureus; strain H290) was 1 µg/mL (≈ 0.69 µM). The MIC (Staphylococcus aureus; strain H535) was 0.5 µg/mL (≈ 0.345 µM), the MIC (Staphylococcus aureus; strain ID-VI #1, methicillin-resistant) was 0.5 µg/mL (≈ 0.345 µM) and the MIC (Staphylococcus aureus; strain Seattle 973, methicillin-resistant) was 0.5 µg/mL (≈ 0.345 µM). The MIC (Staphylococcus aureus; strain V92) was 0.5 µg/mL (≈ 0.345 µM), the Plasma level ([4]; 0.08 hours, *1 only 1 zone out of 5 (A84575 Complex)) was 5.84 ± 2.68 and the Plasma level ([4]; 0.33 hours) was 14.25 ± 7.8. For the same compound, the Plasma level ([4]; 0.66 hours) was 7.47 ± 2.5, the Plasma level ([4]; 1 hour) was 5.41 ± 2.4 and the Plasma level ([4]; 2 hours, *2 one very high concentration in one animal (A84575 Complex)) was 0.87 ± 0.2. For the same compound, the MIC [5] was 4 µg/mL (≈ 2.76 µM), the MIC ([6]; strain 1524, A84575: 3 different lots) was 1 µg/mL (≈ 0.69 µM) and the MIC ([6]; strain 1624, A84575: 3 different lots) was 0.25 µg/mL (≈ 0.173 µM). It also gave an MIC (Bacteroides fragilis; Bacteroides fragilis, 24 h) of 16 µg/mL (≈ 11 µM), an MIC (Bacteroides fragilis; strain 1877, 24 hr, A84575: 3 different lots) of 16 µg/mL (≈ 11 µM) and an MIC (Bacteroides fragilis; strain 1936B, 24 hr, A84575: 3 different lots) of 16 µg/mL (≈ 11 µM). It also gave an MIC (Streptococcus pneumoniae; ATCC6301, strain ATCC 6301) of 4 µg/mL (≈ 2.76 µM), an MIC (Streptococcus pneumoniae; strain 97P) of 0.25 µg/mL (≈ 0.173 µM) and an MIC (Streptococcus pneumoniae; strain 2764) of 0.25 µg/mL (≈ 0.173 µM). For the same compound, the MIC (Streptococcus pneumoniae; strain BI5) was 0.5 µg/mL (≈ 0.345 µM), the MIC (Streptococcus pneumoniae; strain BI343) was 0.25 µg/mL (≈ 0.173 µM) and the MIC (Streptococcus pneumoniae; strain BI348) was 0.25 µg/mL (≈ 0.173 µM). For the same compound, the MIC (Streptococcus pneumoniae; strain BI374) was 4 µg/mL (≈ 2.76 µM), the MIC (Streptococcus pneumoniae; strain BI508) was 0.5 µg/mL (≈ 0.345 µM) and the MIC (Streptococcus pneumoniae; strain BI180351) was 0.25 µg/mL (≈ 0.173 µM). It also gave an MIC (Streptococcus pneumoniae; strain BI-492) of 0.5 µg/mL (≈ 0.345 µM), an MIC (Streptococcus pneumoniae; strain HZ-4-2) of 0.25 µg/mL (≈ 0.173 µM) and an MIC (Streptococcus pneumoniae; strain M11-1-H7) of 0.5 µg/mL (≈ 0.345 µM). The MIC (Streptococcus pneumoniae; strain M11-1-H10) was 0.25 µg/mL (≈ 0.173 µM), the MIC (Streptococcus pneumoniae; strain M11-Z-Al) was 0.25 µg/mL (≈ 0.173 µM) and the MIC (Streptococcus pneumoniae; strain Park I) was 0.5 µg/mL (≈ 0.345 µM).
